Like-named read-outs stand apart in the source and are kept apart here.
Key:
[1] = test system: Candida albicans ATCC 10231; experiment: EPA MLB SOP MB-35-00 stainless steel carrier disinfection with ILPS (Example 5); type: cell-based
Candida auris AR-0381 = experiment: as above; type: cell-based
microbial growth = experiment: Reduction in microbial growth; type: cell-based; conditions: potassium hexadiene at pH 9
[2] = test system: viral illnesses such as pharyngitis and rhinorrhea; experiment: ILCS spray or wash for the nasopharynx cavity; type: in vivo; conditions: 2-50 mM ILCS spray or wash
[3] = Clinical observation on washing with ILPS; type: in vivo; conditions: general cosmetic use
[4] = Solubility of ILCS preparations; type: physicochemical; conditions: pH 7-10.5
[5] = test system: methacillin resistant Staphylococcus aureus, vancomycin resistant enterococcus, pseudomonas, aspergillus, Candida albicans, Helicobacter pylori; conditions: studies by a third party; cited from earlier work
[6] = test system: Candida albicans (ATCC 10231); experiment: EPA protocol MB-35-00 hard surface carrier disinfection test; conditions: 0.42 M, 1 min
Description: (§1) We used EPA protocol MB-35-00 for testing disinfectants against C. auris (US Environmental Protection Agency. 2017, 2020) and C. albicans ATCC 10231, a yeast common in package spoilage of food and cosmetics.
(§2) We tested 5 batches produced with difference sources of isomerized linoleic acid (Test Substances 1-5).
(§3) The EPA test protocol for testing hard surface disinfection of C. auris (AR0381) with antifungal resistance includes an overnight culture of C. auris (AR.0381) shaken at 200 rpm at 30° C. From this culture, 8 mL was harvested by centrifugation, re-suspended in 2-3 mL phosphate-buffered saline (PBS), and mixed with a 3-part soil load including bovine serum albumin (BSA), yeast extract, and mucin. Metal carriers (10 mm) were inoculated (10 μL culture+soil load) and dried in a desiccator under vacuum (˜70 min). The disk surface was coated with the test substance at 0.42 M (50 μL) for up to 10 min. Following incubation, the carriers were transferred to 10 mL neutralization solution (Sabouraud Dextrose Broth [SDB], a common yeast-mold growth media) for subsequent harvesting on membrane filters. The filtered membranes were transferred to Sabouraud Dextrose Emmons Agar (SDEA) plates to culture for 120 hours at 31° C. Controls consisted of PBS (50 μL) applied to inoculated metal disk carriers, subsequently transferred to 10 mL neutralization solution (SDB), diluted serially in PBS, and plated directly to SDEA plates, See FIG. 2.
(§4) We prepared and qualified these per EPA protocol (US Environmental Protection Agency, 2017). • Soil Stocks: We prepared soil stocks with yeast extract powder (Ref RM027) purchased from Himedia, BSA (A2153) purchased from Sigma Life Science, and gastric mucin (cat #HY-B2196/CS-7626) purchased from Mod Chem Express per SOP MB-35-00 (US Environmental Protection Agency, 2017). • Cell Harvesting: We removed cells from the growth culture media using a Micro-Centrifuge obtained from Changzhou Jintan Sanhe Instrument Co., LTD. (Model TGI6-W) at 10,000×g for 10 min in screw-top-cap vials purchased from Heathrow Scientific (Item HS 100600). The optical density of the inoculate was defined at 15-19 OD600 in PBS with the Ultrospec 10 Cell Density Meter from BioChrom (Holliston, MA, USA) prior to dilution in the soil load. Samples were diluted 1:10 in PBS to obtain absorbance readings between 1.5 and 1.9. • Membrane Filtration: Treated yeasts were collected using a combination of the Rocker (Cat #200300-01) and 47 mm PES membranes with a 0.45 micron pore size obtained from Sterlitech (Catalog #PE54547100).

SARS-COV-2 = experiment: Virucidal assay, 2 minutes contact, end-point titer (CCID50) on Vero 76 cells
[7] = Concentration 11.3% of 12% ICLS, 2 minutes, 22±2° C., Table 4
[8] = Concentration 22.5% of 12% ICLS, 2 minutes, 22±2° C., Table 4
[9] = Concentration 45% of 12% ICLS, 2 minutes, 22±2° C., Table 4
[10] = Concentration 90% of 12% ICLS, 2 minutes, 22±2° C., Table 4
[11] = second experiment, Concentration 0.25% of 12% ICLS, 2 minutes, Table 5
[12] = second experiment, Concentration 0.5% of 12% ICLS, 2 minutes, Table 5
[13] = second experiment, Concentration 1% of 12% ICLS, 2 minutes, Table 5
[14] = second experiment, Concentration 11.3% of 12% ICLS, 2 minutes, 22±2° C., Table 5
[15] = second experiment, LA 1% (4.4 mM), 2 minutes, Tables 8 and 9

Description for Candida auris (AR-0381): as §1, §2, §3, §4

potassium salt of isomerized linoleic acid [ILCS]
growth on exposed carrier ([1]; 1 minute exposure to ILPS, only exposure time of 8 to 1 minutes with growth): 158 CFU | kill ([1]; 2 minutes exposure/immersion, carriers with 6-8 log yeast): 100% | colonies recovered from treated surfaces ([1]; undiluted ILPS, 10 minutes contact time, PBS controls 5.9 to 7.2 log10 CFU): no Candida albicans colonies | kill (Candida auris AR-0381; 2-minute immersion, carriers inoculated with 6-8 log yeast): 100% | colonies recovered from treated carries (Candida auris AR-0381; undiluted ILPS, 10 minutes, seven carries, untreated 7.1-7.2 log10 CFU): no colonies | reduction in microbial growth (microbial growth): 8-10 log reduction | symptoms associated with viral illnesses [2]: reduced symptoms | acne [3]: clinical remission of acne | solubility [4]: remain soluble | log kill rate (Candida auris (AR-0381); 0.42 M, 1 min): greater than 5 log | log kill rates (Candida auris (AR-0381); 10-min test, the longest time allowed per the SOP): greater than 5 log | toxicity to cells in titer plates (Vero 76 cells; 11.3% sample, 1/10 dilution): Full toxicity | toxicity to cells in titer plates (Vero 76 cells; 22.5%-90% samples, 1/10 and 1/100 dilutions): Full toxicity | growth of pathogens [5]: suppresses the growth | log kill rate [6]: greater than 5 log | reduction of virus vs virus controls (SARS-COV-2): > 99% | reduction of virus vs virus controls (SARS-COV-2; 1% (4.4 mM), 2 minutes, second experiment, titer reduced to 1.7 log CCID50 per 0.1 mL): 99% | reduction of virus vs virus controls (SARS-COV-2; 22.5%-90%, 2 minutes, first experiment, below limit of detection 2.7 log CCID50 per 0.1 mL): > 80% | LRV (log reduction value) (SARS-COV-2; [7]): >1.8 | Virus Titer (SARS-COV-2; [7]): <1.7 Log10 CCID50 of virus per 0.1 mL | LRV (log reduction value) (SARS-COV-2; [8]): >0.8 | Virus Titer (SARS-COV-2; [8]): <2.7 Log10 CCID50 of virus per 0.1 mL | LRV (log reduction value) (SARS-COV-2; [9]): >0.8 | Virus Titer (SARS-COV-2; [9]): <2.7 Log10 CCID50 of virus per 0.1 mL | LRV (log reduction value) (SARS-COV-2; [10]): >0.8 | Virus Titer (SARS-COV-2; [10]): <2.7 Log10 CCID50 of virus per 0.1 mL | kill-rate of COVID-19 (SARS-Cov-2) in vitro (SARS-COV-2; LA 4.4-50.2 mM, 2 minutes): 99% | LRV (log reduction value) (SARS-COV-2; [11]): 0.4 | Virus Titer (SARS-COV-2; [11]): 3.3 Log10 CCID50 of virus per 0.1 mL | LRV (log reduction value) (SARS-COV-2; [12]): 0.2 | Virus Titer (SARS-COV-2; [12]): 3.5 Log10 CCID50 of virus per 0.1 mL | LRV (log reduction value) (SARS-COV-2; [13]): 2.0 | Virus Titer (SARS-COV-2; [13]): 1.7 Log10 CCID50 of virus per 0.1 mL | LRV (log reduction value) (SARS-COV-2; [14]): >2.0 | Virus Titer (SARS-COV-2; [14]): <1.7 Log10 CCID50 of virus per 0.1 mL | LRV (log reduction value) (SARS-COV-2; [15]): >2.0 | Virus Titer (SARS-COV-2; [15]): <1.7 Log10 CCID50of virus per 0.1 mL

— patent publication US12611380B2, “Solution and method for reducing the virulence of viruses, bacteria, yeasts, or fungus” (priority 2020, dated 2026)
